In patent US20100273752A1, “MEQUITAZINE FOR TREATING OR PREVENTING PATHOLOGIES INVOLVING HISTAMINE H4 RECEPTORS” (PIERRE FABRE MEDICAMENT, priority 2007, published 2010):
Values joined by “and” are separate entries in the source; they are usually repeats but may differ in a detail not shown here. Identical values can stand only once.

Experiments:
histamine H4 receptor [1] = target: T1, histamine H4 receptor (Homo sapiens, UniProt Q9H3N8); experiment: Affinity constants by competition with tritiated histamine on membrane preparations from CHO cells expressing H4 receptor; type: binding; set-up: expressed in transfected cells; host or cells: CHO; settings: CHO cell membranes
T1 sequence (Q9H3N8 whole entry): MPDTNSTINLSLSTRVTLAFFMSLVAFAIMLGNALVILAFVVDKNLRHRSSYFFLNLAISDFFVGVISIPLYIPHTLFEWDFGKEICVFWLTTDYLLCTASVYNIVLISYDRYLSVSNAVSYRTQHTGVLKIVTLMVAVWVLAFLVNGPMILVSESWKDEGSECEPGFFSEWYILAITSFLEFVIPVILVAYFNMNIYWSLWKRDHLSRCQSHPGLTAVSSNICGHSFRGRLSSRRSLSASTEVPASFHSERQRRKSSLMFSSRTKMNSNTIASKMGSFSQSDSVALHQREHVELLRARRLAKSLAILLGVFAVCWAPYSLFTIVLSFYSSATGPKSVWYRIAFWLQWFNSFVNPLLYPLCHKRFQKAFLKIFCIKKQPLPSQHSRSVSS
Description: In a second series of experiments, the affinity constants of these three compounds are precisely determined by competition with the tritiated histamine radioligand on membrane preparations from CHO cells expressing in a stable manner histamine H4 receptor.

[2] = Transcutaneous passage through human skin explants in dynamic diffusion chamber; type: in vitro ADME
Description: The importance of H4 receptor in pruritus was recently established. Thus, an antagonist targeting the histamine H4 receptors involved in dermatological pruritus can constitute a weapon of choice for breaking behaviors related to pruritus and, consequently, for avoiding superinfections generated by the skin lesions caused by pruritus. […] To this end, it is useful to have an H4 antihistamine likely to cross the cutaneous barrier in order to reach its target on subcutaneous mast cells. […] Human skin explants were placed in a dynamic diffusion chamber (diffusion area of 0.636 cm^2), with the dermis in contact with the receptor medium (water; 0.9% NaCl 0.9% NaN3 0.1%/ethanol; 75/25; v/v). The flow rate is 1.5 ml/h. The study is carried out at 32° C. The solution containing the compound (500 μl to 2.5 mg/ml, or 10 μCi per cell) is deposited at T=0. The study of transcutaneous passage is carried out under occlusion. The receiving liquid is sampled at 3, 6, 9, 12, 16, 20 and 24 hours.

[3] = system: bronchoconstriction induced by acetylcholine; experiment: Inhibition of acetylcholine-induced bronchoconstriction in anaesthetized ventilated guinea pigs; type: in vivo, guinea pig
Description: Guinea pigs are anaesthetized and artificially ventilated. The air penetrating the lungs is measured by means of a sensor. Each inspiration is thus quantified. Bronchoconstriction is then induced by intravenous injection of acetylcholine. The effect of acetylcholine is a direct and immediate modification of bronchial tonus. The bronchoconstriction effects of acetylcholine are evaluated in mm at the peak of the effects.

histamine H4 receptor [4] = target: T1, histamine H4 receptor; experiment: Receptor binding in vitro, HEK-293 cells stably transfected with human H4 receptor, 10 nM tritiated histamine; set-up: expressed in transfected cells; host or cells: HEK-293; settings: for inhibition at 10 µM: compounds tested at 10 μM, 10 nM tritiated histamine, HEK-293 cells
Description: The goal of this study is to determine an affinity constant of the compound with respect to human histamine H4 receptor in vitro. The model chosen is HEK-293 cells transfected in a stable fashion by cDNA coding for human H4 receptor (Liu et al., 2001). First is determined the affinity of cells expressing each type of receptor for a ligand for which it was also established that it bound 100% to the receptor. The optimal ligand for the recombinant receptor is 10 nM tritiated histamine. Receptor binding is defined as follows: the difference between total binding and the nonspecific binding determined in the presence of excess cold ligand. The results are expressed as a percentage of optimal binding obtained with the ligand model (100%).

[5] = system: plantar edema induced by histamine; experiment: Plantar edema induced by histamine in the mouse, oral administration; type: in vivo; settings: for Inhibition of inflammation (%): 3 mg/kg oral; for Anti-inflammatory activity, range over pretreatment times: oral, 120, 90, 60 and 30 minutes beforehand
Description: The goal of this experiment was to detect possible anti-inflammatory activity of […], […] and […] with respect to plantar edema induced by histamine in the mouse. The principle of the test is inspired by the publication of Kreutner et al. (2000). All groups were composed of 10 animals. The products were administered by oral route (25 ml/kg) in pretreatment, at various times: 120, 90, 60 and 30 minutes before the inflammation-producing agent. Sixty minutes later, an injection (10 μl) in the paw was given under isoflurane anesthesia. The right paw received 13 μg of histamine dihydrochloride and the left paw physiological saline solution (histamine vehicle). Thirty minutes after the injections, the animals were euthanized by cervical dislocation. The paws were sampled and weighed. The edemas were quantified by the difference between the weights of the paws (weight of right paw-weight of left paw).

[6] = system: histamine-induced bronchoconstriction; experiment: Histamine-induced bronchoconstriction, Konzett model, intravenous administration; type: in vivo, guinea pig
Description: The goal of these experiments is to evaluate the activity of the three compounds […] and […] with respect to histamine-induced bronchoconstriction in the Konzett (1940) guinea pig model. Previously we saw that the three compounds exerted antihistamine activity with respect to H4 receptor in vitro, while on the other hand in vivo only […] and […] appeared anti-inflammatory when the inflammation is generated by histamine. It seems that […] loses its activity when it is administered by oral route. With an aim of analyzing the activity by intravenous route of the three products, the following test was conducted. The animals are ventilated, by means of a constant pressure respiratory pump, by a volume of air in excess. […] The variations observed represent changes in bronchial tonus. Histamine-induced bronchoconstriction causes an increase in the excess volume measured by the sensor. The various compounds are administered by way of the jugular vein, which is catheterized beforehand. Histamine stimulation is then carried out by intravenous route at a dose of 7 μg/kg.

respiratory functions = experiment: Effects on respiratory functions after oral administration in male Wistar rats; type: in vivo, rat; settings: for Pupil diameter: rat, in vivo
Description: The effects of […] (0.5, 50 and 100 mg/kg) on respiratory functions are analyzed after oral (per os) administration in male Wistar rats (8 rats/dose). […] (100 mg/kg) administered under the same conditions is used as a reference substance. Theophylline (100 mg/kg), administered under the same experimental conditions, is used as a reference substance. Carboxymethyl cellulose (0.5%) in distilled water is used as a control vehicle. At the end of the testing period (i.e., 360 minutes after administration of the dose), the behavior of the animals as well as the diameter of their pupils (miosis/mydriasis) are evaluated. Blood samples are taken from each rat (except those pertaining to the theophylline group) in order to analyze the concentration of the substance in the blood. […]

H4 receptor = H4 receptor (Homo sapiens, UniProt Q9H3N8); experiment: G protein activation test ([35S] GTP binding); settings: for Effect on G protein activation induced by histamine: 0.1 μM histamine, FIG. 1a; for Functional character at H4 receptor (basal activity in the absence of agonist): FIG. 1b
Chain of H4 receptor (Q9H3N8 whole entry): as above

Compound	Ki (histamine H4 receptor [1]) [nM]	Percentage of inhibition (%) ([3]; dose 25 μg/kg)	Percentage of inhibition (%) ([3]; dose 50 μg/kg)	Percentage of inhibition (%) ([3]; dose 100 μg/kg)	Binding to human histamine H4 receptors (in words) (histamine H4 receptor [4])	Inhibition of inflammation (%) ([5]; pretreatment −30 min)	Inhibition of inflammation (%) ([5]; pretreatment −60 min)	Inhibition of inflammation (%) ([5]; pretreatment −90 min)	Inhibition of inflammation (%) ([5]; pretreatment −120 min)	Anti-inflammatory activity, range over pretreatment times [5]	Inhibition at 5 min (%) ([6]; 12.5 mg/kg i.v.)	Inhibition at 30 min (%) ([6]; 12.5 mg/kg i.v.)	Inhibition at 5 min (%) ([6]; 25 mg/kg i.v.)	Inhibition at 30 min (%) ([6]; 25 mg/kg i.v.)	Inhibition at 5 min (%) ([6]; 37.5 mg/kg i.v.)	Inhibition at 30 min (%) ([6]; 37.5 mg/kg i.v.)	Inhibition at 5 min (%) ([6]; 50 mg/kg i.v.)	Inhibition at 30 min (%) ([6]; 50 mg/kg i.v.)	Effect on G protein activation induced by histamine (H4 receptor)	Functional character at H4 receptor (basal activity in the absence of agonist) (H4 receptor)	further results
c1ccc2c(c1)Sc1ccccc1N2CC1CN2CCC1CC2 (racemic) [L0013, 10-[(3R,3S)-1-azabicyclo[2.2.2]oct-3-ylmethyl]-10H-phenothiazine]	1630 ± 200	−8 ± 1	−25 ± 2	−24 ± 6	strongly bind	−54%	−65%	−82	−80%	−54% to −82%	−35 ± 6	−39 ± 7%	−35 ± 5%	−61 ± 5%	−26 ± 4%	−51 ± 8%	−37 ± 5%	−57 ± 7%	antagonize the activating action	inverse agonists	Accumulated quantity in receiving liquid (receptor zone) at 24 hours ([2]; 24 hours): 107 μg/cm^2 and 107±28 μg/cm^2; Nearly constant maximum flow ([2]; human, 2.5 mg/ml): 5.4 μg/cm^2/h; Time at which nearly constant maximum flow is reached ([2]; human, 2.5 mg/ml): 16 h; Amount of compound in dermis ([2]; human, 24 h, 2.5 mg/ml): 45±14 μg/cm^2; Amount of compound in epidermis ([2]; human, 24 h, 2.5 mg/ml): 56±17 μg/cm^2; Total amount of compound in skin (epidermis and dermis) ([2]; human, 24 h, 2.5 mg/ml): 101 μg/cm^2; Transcutaneous passage ([2]; human, 24 h, 2.5 mg/ml): approx. 100 μg/cm^2/24 h; Change in respiratory rate (respiratory functions; 100 mg/kg p.o., at 60 minutes): +80%; Change in respiratory volume (respiratory functions; 100 mg/kg p.o., at 60 minutes): −26%; Change in relaxation time (respiratory functions; 100 mg/kg p.o., at 120 minutes): −30%; Pupil diameter (respiratory functions): appreciable increase
CN1[C@@H]2CC[C@H]1C[C@@H](OC(=O)C(CO)c1ccccc1)C2 (some centres unmarked) [Atropine, reference compound]	–	–	–	–	–	–	–	–	–	–	–	–	–	–	–	–	–	–	–	–	Percentage of inhibition (%) ([3]; dose 5 μg/kg): −76 ± 8%
Cn1c(=O)c2[nH]cnc2n(C)c1=O [Theophylline, reference compound]	–	–	–	–	–	–	–	–	–	–	–	–	–	–	–	–	–	–	–	–	Change in peak flow of expiration (respiratory functions; 100 mg/kg p.o., at 60 minutes): +121%; Change in peak flow of inspiration (respiratory functions; 100 mg/kg p.o., at 60 minutes): +116%; Change in relaxation time (respiratory functions; 100 mg/kg p.o., at 60 minutes): −61%; Change in respiratory rate (respiratory functions; 100 mg/kg p.o., at 60 minutes): +223%; Change in time of expiration (respiratory functions; 100 mg/kg p.o., at 60 minutes): −63%; Change in time of inspiration (respiratory functions; 100 mg/kg p.o., at 60 minutes): −60%; Change in respiratory volume (respiratory functions; 100 mg/kg p.o., at 120 minutes): −17%; Change in 'improves respiratory pause' parameter (respiratory functions; 100 mg/kg p.o., at 300 minutes): −37%; Change in respiratory pause (respiratory functions; 100 mg/kg p.o., at 300 minutes): −20%; Behavior and signs of morbid state (respiratory functions; 360 minutes post-administration, V0114 0.5, 50 and 100 mg/kg, L0013 and theophylline 100 mg/kg): no change of behavior or signs of morbid state
c1ccc2c(c1)Sc1ccccc1N2C[C@@H]1CN2CCC1CC2 [V0114, 10-[(3S)-1-azabicyclo[2.2.2]oct-3-ylmethyl]-10H-phenothiazine]	2490 ± 370	−7 ± 3	−6 ± 1	−14 ± 4	strongly bind	−63%	−58%	−72	−71%	−58% to −72%	−15 ± 3	−35 + 6%	−29 ± 3%	−71 + 5%	−51 ± 8%	−91 + 2%	−48 ± 6%	−97 + 2%	antagonize the activating action	inverse agonists	inhibition at 10 µM (histamine H4 receptor [4]): 33%; Effect on the nine respiratory parameters evaluated (respiratory functions; 0.5, 50 and 100 mg/kg p.o., 360 minute test period): does not have a significant effect; Pupil diameter (respiratory functions; male, Wistar, 360 min): an increase of 50 mg/kg related to the administration was noted
c1ccc2c(c1)Sc1ccccc1N2C[C@H]1CN2CCC1CC2 [V0162, 10-[(3R)-1-azabicyclo[2.2.2]oct-3-ylmethyl]-10H-phenothiazine]	1180 ± 160	−9 ± 3	−29 ± 4	−37 ± 5	strongly bind	+2%	+25%	−5	+12%	–	–	–	−17 + 3%	−9 ± 8%	−23 + 4%	−9 ± 9%	−31 + 12%	−4 ± 10%	antagonize the activating action	inverse agonists	inhibition at 10 µM (histamine H4 receptor [4]): 52%; Effect on histamine edema (in words) ([5]; oral route): does not reduce this edema
S=C(NC1CCCCC1)N1CCC(c2cnc[nH]2)CC1 [thioperamide, reference compound]	–	–	–	–	–	–	–	–	–	–	–	–	–	–	–	–	–	–	antagonize the activating action	inverse agonists	–
